The source of these data is patent US20240238296A1, “METHODS OF REGULATING BCL11A EXPRESSION AND TREATMENT OF BCL11A-MEDIATED DISORDERS” (Fulcrum Therapeutics, Inc., priority 2021, published 2024).

Experiment [1] concerns BCL11A. Briefly: RNA-Seq of BCL11A mRNA expression in erythroid-differentiated primary CD34+ cells. Format: cell-based, human. On the procedure: Human Mobilized Peripheral Blood Primary CD34+ cells from healthy donors were expanded from thaw by seeding 100,000 viable cells/mL in a culture flask containing CD34+ Phase 1 Media comprised of IMDM, 100 ng/ml hSCF, 5 ng/ml IL-3, 3 IU/mL EPO, 250 μg/mL transferrin, 2.5% normal human serum, 1% pen/strep, 10 ng/ml heparin, 10 μg/mL insulin. The cells were supplemented by adding an additional 1X culture volume of CD34+ Phase 1 Media on Day 3 after thaw. At Day 7 post-thaw, cells were seeded at 0.111×10^6 cells/ml in 1.5 mLs of Phase 1 media in 12-well plates and compound was applied. On Day 10 post-thaw, cells were differentiated towards the erythroid lineage by complete medium exchange into CD34+ Phase 2 Media comprised of IMDM, 100 ng/ml hSCF, 3 IU/mL EPO, 250 μg/mL transferrin, 2.5% normal human serum, 1% pen/strep, 10 ng/mL heparin, 10 μg/mL insulin and compound treatment was reapplied. On Day 12 post-thaw the plates were centrifuged, and 1 mL of Phase 2 media exchanged with fresh Phase 2 media and compound. The cells were harvested on Day 14 post-thaw for downstream analyses.
(§1) RNA was extracted from Day 14 post-thaw primary CD34+ cells that were differentiated and treated for 7 days with DMSO, 11 nM, 33 nM, 100 nM, or 300 nM of Compound 1 using Ambion mirVana RNA extraction kits. […] Sequenced raw reads of fastq files from all samples were mapped to hg38 genome assemblies using ArrayStudio aligner. Raw read counts and FPKM were calculated for all genes and DESeq2 was applied to calculate differentially expressed genes using general linear model. […]
Changes in BCL11A expression and HBG1 and HBG2 expression in multiple healthy CD34+ donor cells were measured by RNA sequencing (RNA-Seq). […]
RNA was extracted from Day 14 post-thaw primary CD34+ cells that were differentiated and treated for 7 days with DMSO, 100 nM of Compound 1, or 100 nM of Compound 2 using Ambion mirVana RNA extraction kits. […] Sequenced raw reads of fastq files from all samples were mapped to hg38 genome assemblies using ArrayStudio aligner. […]

Experiment [2] has as its system HbF. The experiment is described as follows: Percentage HbF by cation-exchange HPLC in erythroid-differentiated primary CD34+ cells. It is filed as cell-based, human. The conditions noted are these: Example 2; 100 nM, 7 days. On the procedure:
(§2) Changes in BCL11A expression and HBG1 and HBG2 expression in multiple healthy CD34+ donor cells were measured by RNA sequencing (RNA-Seq). Human Mobilized Peripheral Blood Primary CD34+ cells from 2 healthy donors and 1 sickle cell trait donor were expanded from thaw by seeding 100,000 viable cells/mL in a culture flask containing CD34+ Phase 1 Media comprised of IMDM, 100 ng/ml hSCF, 5 ng/ml IL-3, 3 IU/mL EPO, 250 μg/mL transferrin, 2.5% normal human serum, 1% pen/strep, 10 ng/ml heparin, 10 μg/mL insulin. The cells were supplemented by adding an additional 1X culture volume of CD34+ Phase 1 Media on Day 3 after thaw. At Day 7 post-thaw, cells were seeded at 0.111×10^6 cells/ml in 1.5 mLs of Phase 1 media in 12-well plates and compound was applied. […]
Hemoglobin protein tetramers were analyzed using HPLC analysis following a protocol derived from Gravett et al. Science 2018. […] Hemolysates were cleared by centrifugation and analyzed for identity and levels of hemoglobin variants (HbF and HbA) by cation-exchange HPLC with a weak cation-exchange column (Poly CAT A: 35 mm×4.6 mm, Poly LC, Inc., Columbia, MD). […] Species were monitored with UV absorbance at 410 nm. […] The abundance of HbF, HbS, and HbA was quantified by calculating the area under the curve for each species in the samples. % HbF was calculated as HbF/(HbF+HbS+HbA)*100. […]

Experiment [3] has as its system TFRC. The experiment is described as follows: RNA-Seq of housekeeping gene TFRC expression in primary CD34+ cells. The following applies: Example 2; 100 nM, 7 days. It is filed as cell-based, human. How it is done: as §2
(§3) RNA was extracted from Day 14 post-thaw primary CD34+ cells that were differentiated and treated for 7 days with DMSO, 100 nM of Compound 1, or 100 nM of Compound 2 using Ambion mirVana RNA extraction kits. […] Sequenced raw reads of fastq files from all samples were mapped to hg38 genome assemblies using ArrayStudio aligner. Raw read counts and FPKM were calculated for all genes and DESeq2 was applied to calculate differentially expressed genes using general linear model. […]

In experiment [4] the test system is HBG1. Briefly: RNA-Seq of HBG1 expression in erythroid-differentiated primary CD34+ cells. Format: cell-based, human. On the procedure:
as §2, with “applied. On Day 10 post-thaw, cells were differentiated towards the erythroid lineage by complete medium exchange into CD34+ Phase 2 Media comprised of IMDM, 100 ng/ml hSCF, 3 IU/mL EPO, 250 μg/mL transferrin, 2.5% normal human serum, 1% pen/strep, 10 ng/ml heparin, 10 μg/mL insulin and compound treatment was reapplied.” for “applied.”
as §3, §1

For experiment [5], the system named is HBG2. Briefly: RNA-Seq of HBG2 expression in erythroid-differentiated primary CD34+ cells. It is filed as cell-based, human. On the procedure: as §2, with “applied. On Day 10 post-thaw, cells were differentiated towards the erythroid lineage by complete medium exchange into CD34+ Phase 2 Media comprised of IMDM, 100 ng/ml hSCF, 3 IU/mL EPO, 250 μg/mL transferrin, 2.5% normal human serum, 1% pen/strep, 10 ng/ml heparin, 10 μg/mL insulin and compound treatment was reapplied.” for “applied.”
as §3, §1

The subject of experiment [6] is HbF. Briefly: % HbF of total hemoglobin by HPLC from whole blood in Townes SCD mouse model. It is filed as in vivo. The conditions noted are these: Townes SCD mice; whole blood after 21 days of treatment; FIG. 8C. An excerpt:
The Townes SCD mouse model was used to study the in vivo pharmacologic activity of Compound 1 in a model with the relevant human globin genes (HBG1 and HBBE6V) integrated into the mouse beta globin locus. Hydroxyurea was used as a benchmark for this 21-day study. […] People living with sickle cell present with impaired erythropoiesis leading to elevated reticulocytes, decreased red blood cell count, and total hemoglobin, and additionally display markers of inflammation such as elevated neutrophils and white blood cells. Similarly, the Townes mouse model recapitulates these hematological aspects of SCD.

The subject of experiment [7] is H3K27me3. Briefly: Target engagement: H3K27me3 flow cytometry in Ter119+ bone marrow cells of Townes SCD mice. It is filed as in vivo, mouse. The following applies: after 28 days of treatment, FIG. 8A. An excerpt:
The Townes SCD mouse model was used to study the in vivo pharmacologic activity of Compound 1 in a model with the relevant human globin genes (HBG1 and HBBE6V) integrated into the mouse beta globin locus. […] […] People living with sickle cell present with impaired erythropoiesis leading to elevated reticulocytes, decreased red blood cell count, and total hemoglobin, and additionally display markers of inflammation such as elevated neutrophils and white blood cells. Similarly, the Townes mouse model recapitulates these hematological aspects of SCD.
In general terms: In flow cytometry, cells or beads pass a laser one at a time.

[8] abbreviates: Example 2, 100 nM, 7 days, all donors studied (D069, D144, D326), FIG. 2.
Setting [9] is: Example 5, 4-point concentration response curves, FIG. 5A.
Where [10] appears, read: Example 5, 4-point concentration response curves, FIG. 5B.
[11] abbreviates: Example 5, 4-point concentration response curves, FIG. 5C.

With `Cn1nccc1-c1cc2c(n3cnnc13)NCc1c(F)ccc3c1[C@H](CO3)CO2` [Compound 2], the BCL11A expression result in experiment [1] (setting [8]) is “decreased”; in experiment [1] (setting [9]) it was “reduction”. The “increase in percentage HbF by HPLC” value in experiment [2] is listed as “approximately 2 fold”. Moreover, the “expression of the housekeeping gene TFRC” value in experiment [3] is recorded as “did not result in substantial changes in expression”. Besides, the HBG1 expression result in experiment [4] (setting [8]) is recorded as “increase”; in experiment [4] (setting [10]), “induction”. For the same compound, the HBG2 expression entry is “increase” in experiment [5] (setting [8]) and “induction” in experiment [5] (setting [11]).
In the case of `COc1cc(C)[nH]c(=O)c1CN1CCc2c(Cl)cc([C@@H](OC)C3COC3)c(Cl)c2C1=O` [Compound 3], the BCL11A expression entry in experiment [1] (setting [9]) is reported as “reduction”. The HBG1 expression result in experiment [4] (setting [10]) was “induction”. The HBG2 expression entry in experiment [5] (setting [11]) was “induction”.
With `NC(=O)NO` [hydroxyurea], the “% HbF of total hemoglobin by HPLC” value in experiment [6] is reported as “no change”. In experiment [7], the “levels of H3K27me3 in Ter119+ bone marrow cells” value is “not”.
